This test has as its target human OX2R (Homo sapiens (Human), UniProt O43614). Briefly: IPOne (IP-1) assay in CHO cells expressing human OX2R. The settings on record: for Emax: CHO, read-out: Emax (%); for IC50: CHO cells expressing human OX2R, IP-One detection, 2 hours incubation, EC50 = inflection point of four parameter logistic fit, read-out: hOX2R_IP_IC50. It counts as cell-based. The source says: The utility of the compounds in accordance with the present invention as orexin receptor OX1R and/or OX2R agonists may be readily determined without undue experimentation by methodology well known in the art. Both the OX1R and/or OX2R G-coupled protein receptors (GPCRs) couple through the Gαq signaling pathway, which ultimately promotes calcium mobilization via inositol triphosphate (IP3) production. The half-life of IP-3 is relatively short, being rapidly metabolized to inositol monophosphate (IP-1), which can be readily detected using a commercially available assay kit (IP-One; Cisbio; cat #621PAPEC) coupled with a cell line expressing the target receptor(s) of interest. The utility of the compounds in accordance with the present invention as orexin receptor OX1R and/or OX2R agonists may be determined utilizing this assay.
In a typical experiment, the OX1 and OX2 receptor agonist activity is determined in accordance with the following general experimental method. Chinese hamster ovary (CHO) cells expressing human OX1R and/or the human OX2R were grown in Iscove's modified DMEM containing glutaMAX™, 1% G418, 100 U/mL penicillin, 100 μg/mL streptomycin and 10% heat-inactivated qualified fetal bovine serum (FBS). The OX2R cells were seeded at 10,000 cells/well/50 μL and the OX1R cells were seeded at 20,000 cells/well/50 μL into 384-well white tissue culture plates (Greiner; cat #781080). All cell/media reagents were from GIBCO-Invitrogen Corp. The seeded cell plate(s) were incubated at 37° C. with 5% CO2 and 85% humidity for 20-24 hours. On the day of the assay, assay-ready compound plates were prepared using an acoustic liquid handler (ECHO; Labcyte), which dispensed sufficient volume of test compound stock (10 mM in DMSO) or 100% DMSO to prepare 10 point, ½-log dilutions in a final volume of 202.5 nL/well in all test wells of a 384-well diamond plate (Labcyte). Following completion of assay-ready plates, importantly, the next three steps were performed with minimal delay: 1) 20 μl of 1× stimulation buffer was added to the compound plate using a Multidrop Combi (small cassette, Thermo Fisher Scientific cat #24073290); 2) culture medium was removed from the cell plate using the Bluewasher plate washer (gentle spin; BlueCatBio); 3) 14 μl of compound/stimulation buffer mixture was added to the cell plate using a Bravo liquid handler (Agilent) prior to incubating cell plates at 37° C. with 5% CO2 and 85% humidity for 1 or 2 hours (OX1R and OX2R, respectively). During this incubation, IP-one detection reagents were prepared (38:1:1 lysis buffer:D2:AB-cryptate reagents). Six μL of mixed detection reagents were added to the cell plate using a Multidrop Combi (small cassette, Thermo Fisher Scientific cat #24073290) and incubated 60 minutes at room temperature in the dark. Fluorescence signal was detected using an Envision plate reader (Perkin Elmer) [LANCE/DELFIA Dual Enh (Em: APC 665; Ex: Cy5 620)].
For each compound, data were fit to a four parameter logistic fit (ActivityBase software) and the EC50 was reported as the inflection point of the resulting curve. Percent effect for each test compound was determined as the percentage of sample raw value/mean max effect, where the mean max effect was derived from the mean raw value of 32 control wells per assay plate (using Orexin A (cat #003-30) at 1 μM for human OX1R and a reference compound at 1 uM with 100% activity previously established by comparison to Orexin A for human OX2R). The intrinsic orexin receptor agonist activity of a compound which may be used in the present invention may be determined by these assays.

The mark [1] stands for this setting: percentage of mean max effect of a reference compound at 1 uM (100% activity by comparison to Orexin A), human OX2R.

Sequence of human OX2R (O43614 whole entry): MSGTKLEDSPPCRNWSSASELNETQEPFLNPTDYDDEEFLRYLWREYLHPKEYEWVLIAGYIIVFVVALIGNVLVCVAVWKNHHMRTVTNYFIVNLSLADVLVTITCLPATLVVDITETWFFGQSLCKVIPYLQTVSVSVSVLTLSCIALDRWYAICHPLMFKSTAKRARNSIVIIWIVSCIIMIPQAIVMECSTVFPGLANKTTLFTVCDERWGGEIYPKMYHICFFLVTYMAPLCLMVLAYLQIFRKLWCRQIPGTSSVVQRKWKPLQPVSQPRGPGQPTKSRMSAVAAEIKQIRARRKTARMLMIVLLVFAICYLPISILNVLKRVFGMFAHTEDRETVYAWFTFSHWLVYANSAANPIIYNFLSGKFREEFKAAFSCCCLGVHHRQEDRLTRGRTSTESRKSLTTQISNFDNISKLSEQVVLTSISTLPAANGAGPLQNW

As usually defined, the Emax is the greatest response seen or fitted, relative to the assay's reference. For the compound `CCS(=O)(=O)N[C@H]1C[C@@H](C)N(C(=O)OC)[C@H]1CO[C@@H]1CC[C@]2(c3ncc(F)cn3)C[C@@H]2C1` [Example 47, methyl (2R,3S,5R)-3-(ethylsulfonamido)-2-((((1R,3R,6S)-6-(5-fluoropyrimidin-2-yl)bicyclo[4.1.0]heptan-3-yl)oxy)methyl)-5-methylpyrrolidine-1-carboxylate], the Emax under setting [1] came out at 98.4%. On the same count and under the same terms, next, `CCC(OC(=O)N1[C@H](C)C[C@H](NS(C)(=O)=O)[C@@H]1CO[C@H]1CC[C@@]2(c3ncc(F)cn3)C[C@H]2C1)C(F)F` (stereo partly drawn) [Example 50, 1,1-difluorobutan-2-yl (2R,3S,5R)-2-((((1S,3S,6R)-6-(5-fluoropyrimidin-2-yl)bicyclo[4.1.0]heptan-3-yl)oxy)methyl)-5-methyl-3-(methylsulfonamido)pyrrolidine-1-carboxylate]: 104%; `C[C@@H]1C[C@H](NS(C)(=O)=O)[C@H](CO[C@H]2CC[C@@]3(c4ncc(F)cn4)C[C@H]3C2)N1C(=O)OCC(F)C1CCC1` (stereo partly drawn) [Example 54, 2-cyclobutyl-2-fluoroethyl (2R,3S,5R)-2-((((1S,3S,6R)-6-(5-fluoropyrimidin-2-yl)bicyclo[4.1.0]heptan-3-yl)oxy)methyl)-5-methyl-3-(methylsulfonamido)pyrrolidine-1-carboxylate]: 104%; `COC(=O)N1[C@H](C)C[C@H](NS(C)(=O)=O)[C@@H]1CO[C@H]1CC[C@@]2(c3ncc(F)cn3)C[C@H]2C1` [Example 137, methyl (2R,3S,5R)-2-((((1S,3S,6R)-6-(5-fluoropyrimidin-2-yl)bicyclo[4.1.0]heptan-3-yl)oxy)methyl)-5-methyl-3-(methylsulfonamido)pyrrolidine-1-carboxylate]: 101%. The same measure, in the same setting: next, `COC(=O)N1[C@H](C)C[C@H](NS(=O)(=O)CF)[C@@H]1COC1CCC2(c3ncc(Cl)c(OC)n3)CC2C1` (stereo partly drawn) [Example 86, methyl (2R,3S,5R)-2-(((6-(5-chloro-4-methoxypyrimidin-2-yl)bicyclo[4.1.0]heptan-3-yl)oxy)methyl)-3-((fluoromethyl)sulfonamido)-5-methylpyrrolidine-1-carboxylate]: 101%; `C[C@@H]1C[C@H](NS(C)(=O)=O)[C@H](CO[C@H]2CC[C@@]3(c4ncc(F)cn4)C[C@H]3C2)N1C(=O)OCCC(F)F` [Example 52, 3,3-difluoropropyl (2R,3S,5R)-2-((((1S,3S,6R)-6-(5-fluoropyrimidin-2-yl)bicyclo[4.1.0]heptan-3-yl)oxy)methyl)-5-methyl-3-(methylsulfonamido)pyrrolidine-1-carboxylate]: 102%. As for `COC(=O)N1[C@H](C)C[C@H](NS(=O)(=O)N(C)C)[C@@H]1COC1CCC2(c3ncccn3)CC2C1` (single isomer, unassigned) [Example 187], the IC50 is 2.1 nM. In addition, the “Emax (%)” value under setting [1] is given as 100.0%. In the case of `COC(=O)N1[C@H](C)C[C@H](NS(=O)(=O)N(C)C)[C@@H]1CO[C@@H]1CC[C@]2(c3ncc(F)cn3)C[C@@H]2C1` (single isomer, unassigned) [Example 165], the IC50 came to 3.9 nM. For the same compound, under setting [1], the Emax was determined as 101%. Turning to `COC(=O)N1[C@H](C)C[C@H](NS(=O)(=O)CF)[C@@H]1CO[C@H]1CC[C@@]2(c3ncc(Cl)c(OC)n3)C[C@H]2C1` (single isomer, unassigned) [Example 84], the IC50 amounted to 4.6 nM. Under setting [1], the Emax stood at 101%. Take `COC(=O)N1[C@H](C)C[C@H](NS(C)(=O)=O)[C@@H]1COC1CCC2(c3ncc(Cl)cn3)CC2C1` (stereo partly drawn) [Example 140, methyl (2R,3S,5R)-2-(((6-(5-chloropyrimidin-2-yl)bicyclo[4.1.0]heptan-3-yl)oxy)methyl)-5-methyl-3-(methylsulfonamido)pyrrolidine-1-carboxylate]: the Emax under setting [1] was 103%. The same measure, in the same setting: next, `COC(=O)N1[C@H](C)C[C@H](NS(=O)(=O)N(C)C)[C@@H]1COC1CCC2(c3ccccn3)CC2C1` (stereo partly drawn) [Example 9, methyl (2R,3S,5R)-3-((N,N-dimethylsulfamoyl)amino)-5-methyl-2-(((6-(pyridin-2-yl)bicyclo[4.1.0]heptan-3-yl)oxy)methyl)pyrrolidine-1-carboxylate]: 99%.

Take `COC(=O)N1[C@H](C)C[C@H](NS(C)(=O)=O)[C@@H]1CO[C@H]1CC[C@@]2(c3ncc(C)cn3)C[C@H]2C1` (single isomer, unassigned) [Example 156]: the IC50 was 19.2 nM. For the same compound, the Emax under setting [1] was 102%.

Consider `COC(=O)N1[C@H](C)C[C@H](NS(=O)(=O)CCl)[C@@H]1CO[C@H]1CC[C@@]2(c3ncc(F)cn3)C[C@H]2C1` [Example 37, methyl (2R,3S,5R)-3-((chloromethyl)sulfonamido)-2-((((1S,3S,6R)-6-(5-fluoropyrimidin-2-yl)bicyclo[4.1.0]heptan-3-yl)oxy)methyl)-5-methylpyrrolidine-1-carboxylate], for which, under setting [1], the Emax was 103%. With `CC(C)OC(=O)N1[C@H](C)C[C@H](NS(=O)(=O)CF)[C@@H]1CO[C@H]1CC[C@@]2(c3ncc(Cl)cn3)C[C@H]2C1` (single isomer, unassigned) [Example 95], the IC50 was 1.8 nM. In addition, the Emax under setting [1] came to 101%. As for `COC(=O)N1[C@@H]2CCC[C@@H]2[C@H](NS(=O)(=O)CF)[C@@H]1COC1CCC2(c3ncc(F)cn3)CC2C1` (stereo partly drawn) [Example 130, methyl (2R,3S,3aS,6aR)-3-((fluoromethyl)sulfonamido)-2-(((6-(5-fluoropyrimidin-2-yl)bicyclo[4.1.0]heptan-3-yl)oxy)methyl)hexahydrocyclopenta[b]pyrrole-1(2H)-carboxylate], under setting [1], the Emax was 101%.

As to `CC(C)OC(=O)N1[C@H](C)C[C@H](NS(=O)(=O)C(F)F)[C@@H]1CO[C@H]1CC[C@@]2(c3ncc(F)cn3)C[C@H]2C1` (single isomer, unassigned) [Example 90], the IC50 came to 1.2 nM. Under setting [1], the Emax came to 101%.

For the compound `C[C@@H]1C[C@H](NS(C)(=O)=O)[C@H](CO[C@H]2CC[C@@]3(c4ncc(F)cn4)C[C@H]3C2)N1C(=O)OCC(C)(F)F` [Example 64, 2,2-difluoropropyl (2R,3S,5R)-2-((((1S,3S,6R)-6-(5-fluoropyrimidin-2-yl)bicyclo[4.1.0]heptan-3-yl)oxy)methyl)-5-methyl-3-(methylsulfonamido)pyrrolidine-1-carboxylate], the Emax under setting [1] came out at 101%. The same measure, in the same setting: next, `COC(=O)N1[C@H](C)C[C@H](NS(=O)(=O)N(C)C)[C@@H]1COC1CCC2(c3ccc(C#N)cc3)CC2C1` (stereo partly drawn) [Example 5, methyl (2R,3S,5R)-2-(((6-(4-cyanophenyl)bicyclo[4.1.0]heptan-3-yl)oxy)methyl)-3-((N,N-dimethylsulfamoyl)amino)-5-methylpyrrolidine-1-carboxylate]: 99.8%; `CC(C)OC(=O)N1[C@H](C)C[C@H](NS(=O)(=O)N(C)C)[C@@H]1CO[C@H]1CC[C@@]2(c3ncccn3)C[C@H]2C1` [Example 171, isopropyl (2R,3S,5R)-3-((N,N-dimethylsulfamoyl)amino)-5-methyl-2-((((1S,3S,6R)-6-(pyrimidin-2-yl)bicyclo[4.1.0]heptan-3-yl)oxy)methyl)pyrrolidine-1-carboxylate]: 101%; `CCCS(=O)(=O)N[C@H]1C[C@@H](C)N(C(=O)OC)[C@H]1CO[C@H]1CC[C@@]2(c3ncc(F)cn3)C[C@H]2C1` [Example 33, methyl (2R,3S,5R)-2-((((1S,3S,6R)-6-(5-fluoropyrimidin-2-yl)bicyclo[4.1.0]heptan-3-yl)oxy)methyl)-5-methyl-3-(propylsulfonamido)pyrrolidine-1-carboxylate]: 105%.

The record behind these values is patent publication US11680060B2, “Bicycloheptane pyrrolidine orexin receptor agonists” (Merck Sharp & Dohme LLC, priority 2020, dated 2023).
